Source: the NIST ThermoML archive (doi:10.1021/acs.jced.8b01135)

Assay: xn = mol fraction of the nth substance listed
Details: 102 kPa, Liquid; for speed of sound: Frequency=3 MHz, Single path-length method; for mass density: Vibrating tube method; for viscosity: Concentric cylinders viscometry

CCCCCCCCC1CCCCC1 [octylcyclohexane] + CCCCCCCCCCCC
Details	mass density [kg/m3]	speed of sound [m/s]	viscosity [mPa·s]
288.15 K, x1 = 0.1	759.33	1326.2	–
288.15 K, x1 = 0.1998	766.24	1335.1	–
288.15 K, x1 = 0.3002	772.95	1344.1	–
288.15 K, x1 = 0.3998	779.63	1353.1	–
288.15 K, x1 = 0.4948	785.9	1361.6	–
288.15 K, x1 = 0.5997	792.69	1370.8	–
288.15 K, x1 = 0.6996	798.98	1379.4	–
288.15 K, x1 = 0.7999	805.34	1388.2	–
288.15 K, x1 = 0.9	811.48	1396.9	–
288.15 K, x1 = 1	817.58	1405.5	–
293.15 K, x1 = 0.1	755.72	1306.9	1.61
293.15 K, x1 = 0.1998	762.65	1315.8	1.74
293.15 K, x1 = 0.3002	769.38	1324.8	1.91
293.15 K, x1 = 0.3998	776.08	1333.9	2.05
293.15 K, x1 = 0.4948	782.36	1342.3	2.23
293.15 K, x1 = 0.5997	789.17	1351.6	2.44
293.15 K, x1 = 0.6996	795.48	1360.3	2.66
293.15 K, x1 = 0.7999	801.86	1369.1	2.91
293.15 K, x1 = 0.9	808.01	1377.8	3.2
293.15 K, x1 = 1	814.13	1386.4	3.52
298.15 K, x1 = 0.1	752.11	1287.6	–
298.15 K, x1 = 0.1998	759.06	1296.5	–
298.15 K, x1 = 0.3002	765.81	1305.5	–
298.15 K, x1 = 0.3998	772.53	1314.8	–
298.15 K, x1 = 0.4948	778.83	1323.4	–
298.15 K, x1 = 0.5997	785.65	1332.6	–
298.15 K, x1 = 0.6996	791.98	1341.2	–
298.15 K, x1 = 0.7999	798.37	1350.2	–
298.15 K, x1 = 0.9	804.53	1358.7	–
298.15 K, x1 = 1	810.67	1367.4	–
303.15 K, x1 = 0.1	748.5	1268.4	1.36
303.15 K, x1 = 0.1998	755.45	1277.3	1.47
303.15 K, x1 = 0.3002	762.24	1286.4	1.6
303.15 K, x1 = 0.3998	768.97	1295.9	1.69
303.15 K, x1 = 0.4948	775.29	1304.4	1.82
303.15 K, x1 = 0.5997	782.13	1313.8	1.98
303.15 K, x1 = 0.6996	788.47	1322.2	2.15
303.15 K, x1 = 0.7999	794.88	1331.4	2.34
303.15 K, x1 = 0.9	801.06	1339.9	2.55
303.15 K, x1 = 1	807.2	1348.6	2.79
313.15 K, x1 = 0.1	741.26	1230.7	1.16
313.15 K, x1 = 0.1998	748.26	1239.6	1.24
313.15 K, x1 = 0.3002	755.08	1248.9	1.33
313.15 K, x1 = 0.3998	761.84	1258.6	1.43
313.15 K, x1 = 0.4948	768.19	1267.1	1.52
313.15 K, x1 = 0.5997	775.07	1276.7	1.64
313.15 K, x1 = 0.6996	781.45	1285.1	1.77
313.15 K, x1 = 0.7999	787.89	1294.4	1.92
313.15 K, x1 = 0.9	794.1	1302.8	2.08
313.15 K, x1 = 1	800.28	1311.6	2.26
323.15 K, x1 = 0.1	734	1193.7	1
323.15 K, x1 = 0.1998	741.03	1202.7	1.07
323.15 K, x1 = 0.3002	747.89	1212.2	1.14
323.15 K, x1 = 0.3998	754.69	1221.9	1.23
323.15 K, x1 = 0.4948	761.08	1230.5	1.31
323.15 K, x1 = 0.5997	768	1240.1	1.38
323.15 K, x1 = 0.6996	774.42	1248.7	1.48
323.15 K, x1 = 0.7999	780.88	1258.1	1.6
323.15 K, x1 = 0.9	787.14	1266.6	1.73
323.15 K, x1 = 1	793.35	1275.5	1.87
333.15 K, x1 = 0.1	726.7	1157.6	0.865
333.15 K, x1 = 0.1998	733.78	1166.9	0.923
333.15 K, x1 = 0.3002	740.68	1176.4	0.984
333.15 K, x1 = 0.3998	747.52	1186	1.06
333.15 K, x1 = 0.4948	753.94	1194.8	1.12
333.15 K, x1 = 0.5997	760.9	1204.5	1.18
333.15 K, x1 = 0.6996	767.37	1213.3	1.26
333.15 K, x1 = 0.7999	773.86	1222.7	1.36
333.15 K, x1 = 0.9	780.16	1231.5	1.46
333.15 K, x1 = 1	786.41	1240.3	1.57
